From PMC9030254, “Target Hopping from Protein Kinases to PXR: Identification of Small-Molecule Protein Kinase Inhibitors as Selective Modulators of Pregnane X Receptor from TüKIC Library” (Cells, 2022)

How the values were obtained:
Test in all cases: Kinase profiling
Assay type in all cases: biochemical
PHKG1 = molecular target: T1, PHKG1 (Homo sapiens, UniProt Q16816)
T1 construct: purchased ProQinase (Freiburg, Germany)
Method: (§1) The analysis was performed by ProQinase (Freiburg, Germany).

MAP3K9 = molecular target: T2, MAP3K9 (Homo sapiens, UniProt P80192)
T2 construct: purchased ProQinase (Freiburg, Germany)
Method: as §1

ERK5 = molecular target: T3, ERK5 (Homo sapiens, UniProt Q13164)
T3 construct: purchased ProQinase (Freiburg, Germany)
Method: as §1

CHK2 = molecular target: T4, CHK2 (Homo sapiens, UniProt O96017)
T4 construct: purchased ProQinase (Freiburg, Germany)
Method: as §1

CDK4/CycD1 = molecular target: T5, CDK4/CycD1 (Homo sapiens, UniProt P11802)
T5 construct: purchased ProQinase (Freiburg, Germany)
Method: as §1

LRRK2 = molecular target: T6, LRRK2 (Homo sapiens, UniProt Q5S007)
T6 construct: purchased ProQinase (Freiburg, Germany)
T6 sequence (Q5S007 whole entry): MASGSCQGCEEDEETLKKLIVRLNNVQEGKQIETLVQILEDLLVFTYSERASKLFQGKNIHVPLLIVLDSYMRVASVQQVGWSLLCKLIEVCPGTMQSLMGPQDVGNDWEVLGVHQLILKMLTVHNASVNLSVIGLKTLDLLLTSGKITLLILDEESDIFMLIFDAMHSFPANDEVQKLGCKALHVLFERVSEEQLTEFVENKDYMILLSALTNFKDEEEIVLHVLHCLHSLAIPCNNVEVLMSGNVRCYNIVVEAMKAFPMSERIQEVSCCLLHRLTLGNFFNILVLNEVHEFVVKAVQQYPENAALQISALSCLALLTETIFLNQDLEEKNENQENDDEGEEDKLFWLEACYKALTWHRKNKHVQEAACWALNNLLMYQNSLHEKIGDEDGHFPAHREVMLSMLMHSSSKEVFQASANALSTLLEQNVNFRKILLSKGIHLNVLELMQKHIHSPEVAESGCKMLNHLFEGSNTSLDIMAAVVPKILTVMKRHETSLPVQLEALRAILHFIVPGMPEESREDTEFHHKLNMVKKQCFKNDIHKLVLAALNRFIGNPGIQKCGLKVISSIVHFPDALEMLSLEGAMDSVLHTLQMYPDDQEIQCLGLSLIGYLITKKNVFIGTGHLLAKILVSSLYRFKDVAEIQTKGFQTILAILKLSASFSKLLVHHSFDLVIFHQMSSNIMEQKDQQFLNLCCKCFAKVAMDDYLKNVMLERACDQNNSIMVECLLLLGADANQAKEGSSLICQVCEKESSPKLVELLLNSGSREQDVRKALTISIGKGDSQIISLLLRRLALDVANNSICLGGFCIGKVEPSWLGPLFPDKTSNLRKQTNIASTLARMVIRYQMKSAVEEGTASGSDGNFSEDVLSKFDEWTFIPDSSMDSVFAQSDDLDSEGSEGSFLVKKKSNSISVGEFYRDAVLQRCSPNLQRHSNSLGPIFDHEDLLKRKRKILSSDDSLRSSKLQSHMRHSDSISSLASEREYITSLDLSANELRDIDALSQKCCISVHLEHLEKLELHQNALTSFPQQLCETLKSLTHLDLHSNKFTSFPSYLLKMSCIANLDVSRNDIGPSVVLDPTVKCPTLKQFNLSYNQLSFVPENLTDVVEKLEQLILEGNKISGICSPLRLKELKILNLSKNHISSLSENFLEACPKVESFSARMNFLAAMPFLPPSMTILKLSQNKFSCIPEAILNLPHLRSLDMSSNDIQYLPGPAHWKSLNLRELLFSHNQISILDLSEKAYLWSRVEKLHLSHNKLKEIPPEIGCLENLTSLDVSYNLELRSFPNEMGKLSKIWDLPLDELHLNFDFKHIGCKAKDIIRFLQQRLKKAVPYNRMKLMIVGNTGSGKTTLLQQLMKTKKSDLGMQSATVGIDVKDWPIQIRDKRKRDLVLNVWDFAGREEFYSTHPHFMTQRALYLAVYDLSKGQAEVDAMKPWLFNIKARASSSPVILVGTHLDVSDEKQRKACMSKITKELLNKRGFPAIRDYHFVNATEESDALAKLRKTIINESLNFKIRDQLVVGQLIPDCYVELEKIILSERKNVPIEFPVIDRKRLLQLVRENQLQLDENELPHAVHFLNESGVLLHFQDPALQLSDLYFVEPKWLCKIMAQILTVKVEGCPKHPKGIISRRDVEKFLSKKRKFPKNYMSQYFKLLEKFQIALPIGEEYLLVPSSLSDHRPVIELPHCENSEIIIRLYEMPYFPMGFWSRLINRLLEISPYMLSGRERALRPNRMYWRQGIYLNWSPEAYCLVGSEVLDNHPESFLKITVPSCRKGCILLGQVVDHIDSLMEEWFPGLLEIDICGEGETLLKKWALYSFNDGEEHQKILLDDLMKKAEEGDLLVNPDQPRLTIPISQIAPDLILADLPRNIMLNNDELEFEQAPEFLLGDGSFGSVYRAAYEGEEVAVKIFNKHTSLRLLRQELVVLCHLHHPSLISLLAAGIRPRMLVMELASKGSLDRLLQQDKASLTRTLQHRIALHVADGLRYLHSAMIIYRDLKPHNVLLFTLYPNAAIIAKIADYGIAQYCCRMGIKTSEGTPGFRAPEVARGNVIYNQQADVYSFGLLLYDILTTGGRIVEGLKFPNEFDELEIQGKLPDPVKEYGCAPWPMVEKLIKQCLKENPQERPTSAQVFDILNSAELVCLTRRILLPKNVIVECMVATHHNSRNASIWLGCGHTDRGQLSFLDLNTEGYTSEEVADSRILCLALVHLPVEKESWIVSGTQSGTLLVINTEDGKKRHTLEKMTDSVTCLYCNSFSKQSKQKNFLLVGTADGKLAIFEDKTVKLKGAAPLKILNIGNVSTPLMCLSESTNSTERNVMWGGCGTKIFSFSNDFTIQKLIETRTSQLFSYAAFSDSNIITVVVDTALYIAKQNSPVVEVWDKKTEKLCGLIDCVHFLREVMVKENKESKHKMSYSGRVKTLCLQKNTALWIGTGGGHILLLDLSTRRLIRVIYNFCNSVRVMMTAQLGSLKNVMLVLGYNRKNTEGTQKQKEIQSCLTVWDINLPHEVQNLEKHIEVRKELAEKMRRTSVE
Method: as §1

PKCzeta = molecular target: T7, PKCzeta (Homo sapiens, UniProt Q05513)
T7 construct: purchased ProQinase (Freiburg, Germany)
T7 sequence (Q05513 1-592): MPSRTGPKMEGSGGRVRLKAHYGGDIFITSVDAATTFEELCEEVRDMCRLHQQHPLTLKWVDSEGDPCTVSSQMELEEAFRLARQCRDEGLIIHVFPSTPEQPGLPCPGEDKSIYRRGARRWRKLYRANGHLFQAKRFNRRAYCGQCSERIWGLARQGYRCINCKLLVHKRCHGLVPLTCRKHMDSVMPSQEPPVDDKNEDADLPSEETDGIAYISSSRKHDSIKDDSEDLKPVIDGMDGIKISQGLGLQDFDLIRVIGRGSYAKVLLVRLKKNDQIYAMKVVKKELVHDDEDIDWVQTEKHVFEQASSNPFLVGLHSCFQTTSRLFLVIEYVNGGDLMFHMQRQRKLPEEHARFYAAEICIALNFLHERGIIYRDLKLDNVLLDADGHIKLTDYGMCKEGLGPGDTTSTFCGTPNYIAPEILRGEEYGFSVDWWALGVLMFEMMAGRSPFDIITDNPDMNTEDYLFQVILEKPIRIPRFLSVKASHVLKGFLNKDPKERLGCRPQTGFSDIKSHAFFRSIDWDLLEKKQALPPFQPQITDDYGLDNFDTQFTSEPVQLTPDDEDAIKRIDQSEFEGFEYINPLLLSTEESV
Method: as §1

TSK2 = molecular target: T8, TSK2 (Homo sapiens, UniProt Q96PF2)
T8 construct: purchased ProQinase (Freiburg, Germany)
T8 sequence (Q96PF2 1-358): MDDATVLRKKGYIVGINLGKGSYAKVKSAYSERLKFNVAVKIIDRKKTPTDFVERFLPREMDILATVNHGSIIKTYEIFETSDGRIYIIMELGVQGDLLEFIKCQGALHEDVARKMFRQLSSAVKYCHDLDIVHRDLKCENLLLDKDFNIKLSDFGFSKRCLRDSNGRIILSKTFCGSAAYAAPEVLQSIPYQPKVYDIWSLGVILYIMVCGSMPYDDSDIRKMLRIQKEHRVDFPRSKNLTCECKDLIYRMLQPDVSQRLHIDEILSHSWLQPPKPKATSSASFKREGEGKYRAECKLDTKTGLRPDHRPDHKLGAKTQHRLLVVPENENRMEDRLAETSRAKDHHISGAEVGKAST
Method: as §1

STK33 = molecular target: T9, STK33 (Homo sapiens, UniProt Q9BYT3)
T9 construct: purchased ProQinase (Freiburg, Germany)
Method: as §1

FGR = molecular target: T10, FGR (Homo sapiens, UniProt P09769)
T10 construct: purchased ProQinase (Freiburg, Germany)
T10 sequence (P09769 whole entry): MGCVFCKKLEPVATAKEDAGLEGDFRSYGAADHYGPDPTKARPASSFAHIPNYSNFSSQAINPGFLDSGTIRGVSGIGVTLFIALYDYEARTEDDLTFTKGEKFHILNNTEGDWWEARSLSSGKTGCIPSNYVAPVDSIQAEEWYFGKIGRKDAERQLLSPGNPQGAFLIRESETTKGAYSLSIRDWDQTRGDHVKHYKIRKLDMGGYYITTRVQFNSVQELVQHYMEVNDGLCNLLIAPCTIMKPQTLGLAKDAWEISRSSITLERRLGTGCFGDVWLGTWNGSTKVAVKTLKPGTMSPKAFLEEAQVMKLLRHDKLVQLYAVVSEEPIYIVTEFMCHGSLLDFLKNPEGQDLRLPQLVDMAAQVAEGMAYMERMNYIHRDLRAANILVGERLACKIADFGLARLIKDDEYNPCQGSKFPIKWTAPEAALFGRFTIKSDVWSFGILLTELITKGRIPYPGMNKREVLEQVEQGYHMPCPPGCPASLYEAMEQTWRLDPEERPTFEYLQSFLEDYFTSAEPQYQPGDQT
Method: as §1

VEGFR1 = molecular target: T11, VEGFR1 (Homo sapiens, UniProt P17948)
T11 construct: purchased ProQinase (Freiburg, Germany)
Method: as §1

CDK12/CycK = molecular target: T12, CDK12/CycK (Homo sapiens, UniProt Q9NYV4)
T12 construct: purchased ProQinase (Freiburg, Germany)
T12 sequence (Q9NYV4 whole entry): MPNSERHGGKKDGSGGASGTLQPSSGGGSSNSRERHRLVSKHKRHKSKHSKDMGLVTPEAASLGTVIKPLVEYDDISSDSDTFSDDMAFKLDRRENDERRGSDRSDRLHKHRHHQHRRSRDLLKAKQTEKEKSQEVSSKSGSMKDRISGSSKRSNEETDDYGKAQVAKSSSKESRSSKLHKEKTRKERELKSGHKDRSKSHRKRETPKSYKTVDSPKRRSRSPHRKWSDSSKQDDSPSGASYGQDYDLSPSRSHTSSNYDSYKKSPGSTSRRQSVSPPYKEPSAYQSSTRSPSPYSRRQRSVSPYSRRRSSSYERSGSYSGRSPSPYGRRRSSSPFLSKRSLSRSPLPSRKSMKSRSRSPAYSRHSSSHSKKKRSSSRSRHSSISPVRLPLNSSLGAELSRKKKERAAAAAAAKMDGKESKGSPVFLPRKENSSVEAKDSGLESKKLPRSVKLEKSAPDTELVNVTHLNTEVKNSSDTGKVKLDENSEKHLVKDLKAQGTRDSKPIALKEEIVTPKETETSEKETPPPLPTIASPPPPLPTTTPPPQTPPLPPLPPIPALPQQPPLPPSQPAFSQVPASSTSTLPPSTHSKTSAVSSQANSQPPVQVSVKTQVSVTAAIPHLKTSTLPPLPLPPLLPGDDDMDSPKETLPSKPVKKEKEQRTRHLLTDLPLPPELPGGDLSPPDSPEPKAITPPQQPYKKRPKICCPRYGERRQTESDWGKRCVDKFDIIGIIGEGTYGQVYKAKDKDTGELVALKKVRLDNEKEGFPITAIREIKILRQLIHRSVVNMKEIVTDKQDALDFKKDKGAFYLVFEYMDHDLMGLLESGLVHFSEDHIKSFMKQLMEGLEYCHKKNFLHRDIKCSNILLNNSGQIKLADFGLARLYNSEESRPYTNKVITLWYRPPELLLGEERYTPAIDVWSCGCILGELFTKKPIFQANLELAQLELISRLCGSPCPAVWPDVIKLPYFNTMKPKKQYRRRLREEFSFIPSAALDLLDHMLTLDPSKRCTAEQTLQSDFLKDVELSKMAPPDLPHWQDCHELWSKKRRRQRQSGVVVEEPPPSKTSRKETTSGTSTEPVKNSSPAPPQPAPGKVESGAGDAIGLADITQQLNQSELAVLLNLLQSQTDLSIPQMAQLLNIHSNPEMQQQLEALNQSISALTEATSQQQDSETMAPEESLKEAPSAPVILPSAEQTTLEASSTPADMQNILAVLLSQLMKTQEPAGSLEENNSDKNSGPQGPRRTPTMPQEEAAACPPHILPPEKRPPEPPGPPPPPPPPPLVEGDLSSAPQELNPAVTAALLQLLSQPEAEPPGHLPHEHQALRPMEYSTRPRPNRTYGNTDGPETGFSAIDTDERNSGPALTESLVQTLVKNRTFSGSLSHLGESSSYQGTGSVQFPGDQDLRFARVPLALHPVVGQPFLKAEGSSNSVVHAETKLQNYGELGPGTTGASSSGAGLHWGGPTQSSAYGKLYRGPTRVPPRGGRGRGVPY
T12 sequence (O75909 whole entry partner): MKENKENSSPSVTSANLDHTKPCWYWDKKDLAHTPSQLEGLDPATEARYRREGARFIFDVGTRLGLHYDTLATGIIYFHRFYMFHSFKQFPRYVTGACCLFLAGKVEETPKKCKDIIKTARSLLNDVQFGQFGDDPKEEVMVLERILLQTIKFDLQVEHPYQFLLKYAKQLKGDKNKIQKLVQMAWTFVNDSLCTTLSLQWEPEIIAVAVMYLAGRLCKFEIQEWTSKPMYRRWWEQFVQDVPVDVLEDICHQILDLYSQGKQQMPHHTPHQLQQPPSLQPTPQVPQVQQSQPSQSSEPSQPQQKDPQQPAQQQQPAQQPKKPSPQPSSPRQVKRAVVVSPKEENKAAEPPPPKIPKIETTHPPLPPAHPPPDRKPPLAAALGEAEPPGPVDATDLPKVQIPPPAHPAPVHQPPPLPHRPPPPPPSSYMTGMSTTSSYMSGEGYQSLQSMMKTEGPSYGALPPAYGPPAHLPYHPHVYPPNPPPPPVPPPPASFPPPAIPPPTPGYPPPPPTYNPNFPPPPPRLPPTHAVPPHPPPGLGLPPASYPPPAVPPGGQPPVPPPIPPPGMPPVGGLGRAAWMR
Method: as §1

FGFR2 = molecular target: T13, FGFR2 (Homo sapiens, UniProt P21802)
T13 construct: purchased ProQinase (Freiburg, Germany)
Method: as §1

MATK = molecular target: T14, MATK (Homo sapiens, UniProt P42679)
T14 construct: purchased ProQinase (Freiburg, Germany)
T14 sequence (P42679 1-507): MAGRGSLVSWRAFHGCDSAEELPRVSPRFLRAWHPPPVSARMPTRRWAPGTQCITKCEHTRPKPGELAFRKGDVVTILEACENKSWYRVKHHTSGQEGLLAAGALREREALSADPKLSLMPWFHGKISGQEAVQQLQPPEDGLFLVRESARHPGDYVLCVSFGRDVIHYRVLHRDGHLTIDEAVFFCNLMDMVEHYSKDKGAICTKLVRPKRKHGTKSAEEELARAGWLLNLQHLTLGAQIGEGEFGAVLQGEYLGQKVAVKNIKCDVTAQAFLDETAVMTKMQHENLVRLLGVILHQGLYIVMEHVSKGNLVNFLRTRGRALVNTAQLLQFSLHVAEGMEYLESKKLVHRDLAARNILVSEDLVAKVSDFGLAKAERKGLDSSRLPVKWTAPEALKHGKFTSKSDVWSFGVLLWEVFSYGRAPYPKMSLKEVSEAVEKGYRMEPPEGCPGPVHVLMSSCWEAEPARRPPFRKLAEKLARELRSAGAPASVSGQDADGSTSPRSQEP
Method: as §1

CK2alpha1 = molecular target: T15, CK2alpha1 (Homo sapiens, UniProt P68400)
T15 construct: purchased ProQinase (Freiburg, Germany)
Method: as §1

| SMILES | Residual activity (PHKG1; 1.0E-05 M) | Residual activity (PHKG1; 1.0E-06 M) | Residual activity (MAP3K9; 1.0E-05 M) | Residual activity (MAP3K9; 1.0E-06 M) | Residual activity (ERK5; 1.0E-05 M) | Residual activity (ERK5; 1.0E-06 M) | Residual activity (CHK2; 1.0E-05 M) | Residual activity (CHK2; 1.0E-06 M) | Residual activity (CDK4/CycD1; 1.0E-05 M) | Residual activity (CDK4/CycD1; 1.0E-06 M) | Residual activity (LRRK2; 1.0E-05 M) | Residual activity (LRRK2; 1.0E-06 M) | Residual activity (PKCzeta; 1.0E-05 M) | Residual activity (PKCzeta; 1.0E-06 M) | Residual activity (TSK2; 1.0E-05 M) | Residual activity (TSK2; 1.0E-06 M) | Residual activity (STK33; 1.0E-05 M) | Residual activity (STK33; 1.0E-06 M) | Residual activity (FGR; 1.0E-05 M) | Residual activity (FGR; 1.0E-06 M) | further results |
| --- | --- | --- | --- | --- | --- | --- | --- | --- | --- | --- | --- | --- | --- | --- | --- | --- | --- | --- | --- | --- | --- |
| O=C(Cc1ccccc1)Nc1ccc(F)c(Nc2ccc3c(c2)CCCCC3=O)c1 [Compound 100] | 75 % of control | 95 % of control | 96 % of control | 102 % of control | 103 % of control | 80 % of control | 72 % of control | 92 % of control | 94 % of control | 104 % of control | 92 % of control | 89 % of control | 102 % of control | 92 % of control | 93 % of control | 97 % of control | 96 % of control | 109 % of control | 82 % of control | 108 % of control | Residual activity (VEGFR1; 1.0E-05 M): 93 % of control; Residual activity (VEGFR1; 1.0E-06 M): 100 % of control; Residual activity (CDK12/CycK; 1.0E-05 M): 100 % of control; Residual activity (CDK12/CycK; 1.0E-06 M): 104 % of control; Residual activity (FGFR2; 1.0E-05 M): 51 % of control; Residual activity (FGFR2; 1.0E-06 M): 90 % of control; Residual activity (MATK; 1.0E-05 M): 86 % of control; Residual activity (MATK; 1.0E-06 M): 101 % of control; Residual activity (CK2alpha1; 1.0E-05 M): 106 % of control; Residual activity (CK2alpha1; 1.0E-06 M): 102 % of control |
| O=C(Nc1ccc(F)c(Nc2ccc3c(c2)CCCCC3=O)c1)c1cccc(F)c1 [Compound 109] | 86 % of control | 96 % of control | 103 % of control | 89 % of control | 93 % of control | 90 % of control | 74 % of control | 94 % of control | 108 % of control | 93 % of control | 90 % of control | 94 % of control | 96 % of control | 87 % of control | 99 % of control | 88 % of control | 99 % of control | 93 % of control | 84 % of control | 105 % of control | Residual activity (VEGFR1; 1.0E-05 M): 93 % of control; Residual activity (VEGFR1; 1.0E-06 M): 101 % of control; Residual activity (CDK12/CycK; 1.0E-05 M): 99 % of control; Residual activity (CDK12/CycK; 1.0E-06 M): 105 % of control; Residual activity (FGFR2; 1.0E-05 M): 74 % of control; Residual activity (FGFR2; 1.0E-06 M): 97 % of control; Residual activity (MATK; 1.0E-05 M): 95 % of control; Residual activity (MATK; 1.0E-06 M): 94 % of control; Residual activity (CK2alpha1; 1.0E-05 M): 98 % of control; Residual activity (CK2alpha1; 1.0E-06 M): 102 % of control |
